Assay results as given in US20070219234A1, “Thienopyridine Derivatives” (priority 2004, published 2007).

SMILES	melting point
CC(C)(C)CNc1ccnc2sc(C(N)=O)c(N)c12 [Example 6, 3-amino-4-(neopentylamino)thieno[2,3-b]pyridine-2-carboxamide]	238 to 240 °C
NC(=O)c1sc2nccc(N3CCCN(c4ccc(F)c(Cl)c4)CC3)c2c1N [Example 81, 3-amino-4-[4-(3-chloro-4-fluorophenyl)-1,4-diazepan-1-yl]thieno[2,3-b]pyridine-2-carboxamide]	181 to 184 °C
COc1ccccc1N1CCN(c2ccnc3sc(C(N)=O)c(N)c23)CC1 [Example 53, 3-amino-4-[4-(2-methoxyphenyl)piperazin-1-yl]thieno[2,3-b]pyridine-2-carboxamide]	294 °C (dec.)
NC(=O)c1sc2nccc(N3CCCOCC3)c2c1N [Example 30, 3-amino-4-(1,4-oxazepan-4-yl)thieno[2,3-b]pyridine-2-carboxamide]	175 to 176 °C
NC(=O)c1sc2nccc(N3CCCN(c4cccc([N+](=O)[O-])c4)CC3)c2c1N [Example 80, 3-amino-4-[4-(3-nitrophenyl)-1,4-diazepan-1-yl]thieno[2,3-b]pyridine-2-carboxamide]	180 to 185 °C
NC(=O)c1sc2nccc(N3CCCN(c4ncnc5ccccc45)CC3)c2c1N [Example 89, 3-amino-4-(4-quinazolin-4-yl-1,4-diazepan-1-yl)thieno[2,3-b]pyridine-2-carboxamide]	228 to 231 °C
NC(=O)c1sc2nccc(N3CC[S+]([O-])CC3)c2c1N [Example 32, 3-amino-4-(1-oxothiomorpholine-4-yl)thieno[2,3-b]pyridine-2-carboxamide]	165 to 172 °C
COc1ccccc1N1CCCN(c2ccnc3sc(C(N)=O)c(N)c23)CC1 [Example 67, 3-amino-4-[4-(2-methoxyphenyl)-1,4-diazepan-1-yl]thieno[2,3-b]pyridine-2-carboxamide]	179 to 184 °C
NC(=O)c1sc2nccc(N3CCCCCCC3)c2c1N [Example 26, 3-amino-4-azocan-1-ylthieno[2,3-b]pyridine-2-carboxamide]	222 to 224 °C
Cc1cccc(N2CCN(c3ccnc4sc(C(N)=O)c(N)c34)CC2C)c1 (stereo not drawn) [Example 95, 3-amino-4-[3-methyl-4-(3-methylphenyl)piperazin-1-yl]thieno[2,3-b]pyridine-2-carboxamide]	215 to 217 °C
NC(=O)c1sc2nccc(N3CCC[S+]([O-])CC3)c2c1N (stereo not drawn) [Example 34, 3-amino-4-(1-oxo-1,4-thiazepan-4-yl)thieno[2,3-b]pyridine-2-carboxamide]	111 to 119 °C
Cc1cc(N2CCCN(c3ccnc4sc(C(N)=O)c(N)c34)CC2)ccc1F [Example 69, 3-amino-4-[4-(4-fluoro-3-methylphenyl)-1,4-diazepan-1-yl]thieno[2,3-b]pyridine-2-carboxamide]	194 to 197 °C
NC(=O)c1sc2nccc(N3CCCC(O)C3)c2c1N (stereo not drawn) [Example 36, 3-amino-4-(3-hydroxypiperidin-1-yl)thieno[2,3-b]pyridine-2-carboxamide]	208 to 211 °C
Cl.Cl.NC(=O)c1sc2nccc(N3CCNCC3)c2c1N	270 to 280 °C
CCSc1ccnc2sc(C(N)=O)c(N)c12 [Example 114, 3-amino-4-(ethylthio)thieno[2,3-b]pyridine-2-carboxamide]	230 to 235 °C
NC(=O)c1sc2nccc(N3CCN(c4ncccn4)CC3)c2c1N [Example 44, 3-amino-4-(4-pyrimidin-2-ylpiperazin-1-yl)thieno[2,3-b]pyridine-2-carboxamide]	280 °C (dec.)
NC(=O)c1sc2nccc(N3CCCN(c4ccccc4Cl)CC3)c2c1N [Example 61, 3-amino-4-[4-(2-chlorophenyl)-1,4-diazepan-1-yl]thieno[2,3-b]pyridine-2-carboxamide]	206 to 210 °C

SMILES	melting point
NC(=O)c1sc2nccc(N3CCCN(c4ccc(C(F)(F)F)cc4)CC3)c2c1N [Example 63, 3-amino-4-[4-(4-trifluoromethylphenyl)-1,4-diazepan-1-yl]thieno[2,3-b]pyridine-2-carboxamide]	204 to 208 °C
NC(=O)c1sc2nccc(N3CCC(O)CC3)c2c1N [Example 19, 3-amino-4-(4-hydroxypiperidin-1-yl)thieno[2,3-b]pyridine-2-carboxamide]	239 to 241 °C
NC(=O)c1sc2nccc(N3CC=C(c4ccccc4)CC3)c2c1N [Example 21, 3-amino-4-(4-phenyl-3,6-dihydropyridin-1(2H)-yl)thieno[2,3-b]pyridine-2-carboxamide]	235 °C (dec.)
CN1CCN(c2ccnc3sc(C(N)=O)c(N)c23)CC1 [Example 39, 3-amino-4-(4-methylpiperazin-1-yl)thieno[2,3-b]pyridine-2-carboxamide]	260 to 263 °C
COc1ccnc2sc(C(N)=O)c(N)c12 [Example 107, 3-amino-4-methoxythieno[2,3-b]pyridine-2-carboxamide]	238 to 241 °C
NC(=O)c1sc2nccc(N3CCCN(c4ccc(OC(F)(F)F)cc4)CC3)c2c1N [Example 87, 3-amino-4-{4-[4-(trifluoromethoxy)phenyl]-1,4-diazepan-1-yl}thieno[2,3-b]pyridine-2-carboxamide]	163 to 165 °C
CC(=O)OC1CCN(c2ccnc3sc(C(N)=O)c(N)c23)CC1 [Example 20, 3-amino-4-(4-acetoxypiperidin-1-yl)thieno[2,3-b]pyridine-2-carboxamide]	231 to 235 °C
NC(=O)c1sc2nccc(NCCCc3ccccc3)c2c1N [Example 9, 3-amino-4-[(3-phenylpropyl)amino]thieno[2,3-b]pyridine-2-carboxamide]	232 to 234 °C
NC(=O)c1sc2nccc(N3CCCN(c4ccc(Br)cc4)CC3)c2c1N [Example 82, 3-amino-4-[4-(4-bromophenyl)-1,4-diazepan-1-yl]thieno[2,3-b]pyridine-2-carboxamide]	170 to 173 °C
CCOc1ccnc2sc(C(N)=O)c(N)c12 [Example 108, 3-amino-4-ethoxythieno[2,3-b]pyridine-2-carboxamide]	241 to 243 °C
Cc1ccc(N2CCN(c3ccnc4sc(C(N)=O)c(N)c34)CC2)cc1 [Example 46, 3-amino-4-[4-(4-methylphenyl)piperazin-1-yl]thieno[2,3-b]pyridine-2-carboxamide]	270 °C (dec.)
Cl.Cl.NC(=O)c1sc2nccc(N3CCCNCC3)c2c1N	> 295 °C
NC(=O)c1sc2nccc(N3CCCC3)c2c1N [Example 13, 3-amino-4-pyrrolidin-1-ylthieno[2,3-b]pyridine-2-carboxamide]	275 to 283 °C
NC(=O)c1sc2nccc(N3CCN(C(c4ccccc4)c4ccccc4)CC3)c2c1N [Example 48, 3-amino-4-(4-benzhydrylpiperazin-1-yl)thieno[2,3-b]pyridine-2-carboxamide]	225 to 233 °C
NC(=O)c1sc2nccc(OC3CCCCCC3)c2c1N [Example 112, 3-amino-4-(cycloheptyloxy)thieno[2,3-b]pyridine-2-carboxamide]	179 to 180 °C
NC(=O)c1sc2nccc(N3CCN(c4ccccn4)CC3)c2c1N [Example 45, 3-amino-4-(4-pyridin-2-ylpiperazin-1-yl)thieno[2,3-b]pyridine-2-carboxamide]	266 to 270 °C
